Laboratory results reported in publication PMC4699860 (Biophysical Journal, 2015).

Target: K-Ras4B1-166-GDP (Homo sapiens, UniProt P01116)
Assay: Microscale thermophoresis
Type: binding
Settings: MST; nucleotide state not given; pH 7.0, 0.05% TWEEN-20

With Ac-KEKLNSKPGKKKKKKSKTK-NH2 [kR-4B-28] the “interaction with K-Ras4B1-166 (in words)” value was “abolished the interaction”.
